The values below come from patent US20250129095A1, “ANNULATED 2-AMINO-3-CYANO THIOPHENES AND DERIVATIVES FOR THE TREATMENT OF CANCER” (Boehringer Ingelheim Int'l GmbH Corp., priority 2021, published 2025).

The target in one series is T1, KRAS (WT)::SOS1 (Homo sapiens, UniProt P01116, C118S).
T1 construct: KRAS (WT) 1-169, N-terminal 6His-tag for purification, cleaved off; 6His-tag (N, cleaved yes); TEV cleavage site; made in house
Description: KRAS::SOS1 AlphaScreen binding assay, KRAS WT. The source says:
This assay can be used to examine the potency with which compounds according to the invention binding to (mutated) KRAS inhibit the protein-protein interaction between SOS1 and (mutated) KRAS e.g., KRAS WT, KRAS G12C, KRAS G12D, KRAS G12V, KRAS G13D. […] Low IC50 values in this assay setting are indicative of strong inhibition of protein-protein interaction between SOS1 and KRAS:
These assays measure the inhibitory effect of compounds on KRAS mutant protein-protein interactions using the Alpha Screen technology by Perkin Elmer
The following (mutant) enzyme forms of KRAS and interacting proteins are used in these assays at the given concentrations: • KRAS (G12D) 1-169, N-terminal 6His-tag, C-terminal avi-tag (Xtal BioStructures, Inc.); final assay concentration 10 nM and SOS1 564-1049, N-terminal 229 GST-tag, TEV cleavage site (Viva Biotech Ltd); final assay concentration 5 nM; • KRAS (G12C) 1-169, N-terminal 6His-tag for purification, cleaved off, C-terminal avi-tag, biotinylated, mutations: C51S, C80L, C118S (in house); final assay concentration 7.5 nM and SOS1 564-1049, N-terminal 229 GST-tag, TEV cleavage site (Viva Biotech Ltd); final assay concentration 5 nM; • KRAS (G12V) 1-169, N-terminal 6His-tag for purification, cleaved off, C-terminal avi-tag, biotinylated, TEV cleavage site, mutation: C118S, GDP loaded (in house); final assay concentration 10 nM and SOS1 564-1049, N-terminal 229 GST-tag, TEV cleavage site (Viva Biotech Ltd); final assay concentration 10 nM; • KRAS (G13D) 1-169, N-terminal 6His-tag for purification, cleaved off, C-terminal avi-tag, biotinylated, TEV cleavage site, mutation: C118S, GDP loaded (in house); final assay concentration 10 nM and SOS1 564-1049, N-terminal 229 GST-tag, TEV cleavage site (Viva Biotech Ltd); final assay concentration 10 nM; • KRAS (WT) 1-169, N-terminal 6His-tag for purification, cleaved off, C-terminal avi-tag, biotinylated, TEV cleavage site, mutation: C118S, GDP loaded (in house); final assay concentration 10 nM and SOS1 564-1049, N-terminal 229 GST-tag, TEV cleavage site (Viva Biotech Ltd); final assay concentration 10 nM.
Test compounds dissolved in DMSO are dispensed onto assay plates (Proxiplate 384 PLUS, white, PerkinElmer; 6008289) using an Access Labcyte Workstation with the Labcyte Echo 55×. For the chosen highest assay concentration of 100 μM, 150 nL of compound solution are transferred from a 10 mM DMSO compound stock solution. A series of eleven fivefold dilutions per compound are transferred to the assay plate, compound dilutions are tested in duplicates. DMSO are added as backfill to a total volume of 150 nL.
The assays run on a fully automated robotic system in a darkened room below 100 Lux. To 150 nl of compound dilution 10 μl of a mix including KRAS mutant protein, SOS1 (final assay concentrations see above) and GDP nucleotide (Sigma G7127; final assay concentration 10 μM) in assay buffer (1×PBS, 0.1% BSA, 0.05% Tween 20) are added into columns 1-24.
After 30 minutes incubation time 5 μl of Alpha Screen bead mix in assay buffer are added into columns 1-23. Bead mix consists of AlphaLISA Glutathione Acceptor Beads (PerkinElmer, Cat No AL109) and AlphaScreen Streptavidin Donor Beads (PerkinElmer Cat No 6760002) in assay buffer at a final assay concentration of 10 μg/ml each.
Plates are kept at room temperature in a darkened incubator. After an additional 60 minutes incubation time the signal is measured in a PerkinElmer Envision HTS Multilabel Reader using the AlphaScreen specs from PerkinElmer.
Each plate contains up to 16 wells of a negative control depending on the dilution procedure (platewise or serial) (DMSO instead of test compound; with KRAS mutant::SOS1 GDP mix and bead mix; column 23) and 16wells of a positive control (DMSO instead of test compound; with KRAS mutant::SOS1 GDP mix w/o bead mix; column 24).
As internal control known inhibitors of KRAS mutant::SOS1 interaction can be measured on each compound plate. […]
Background: Alpha assays give light when donor and acceptor beads are brought close together.

The test system of another series is GP2D cells. Description: GP2D proliferation assay (120 h) (colorectal cancer, G12D). It counts as cell-based. As to the method:
GP2D cells (ATCC No. CRL-5807) are dispensed into white 384-well plates, flat and white bottom (Perkin Elmer, 6007680) at a density of 500 cells per well in 40 μl DMEM (Sigma, D6429)+1× GlutaMAX (Gibco, 35050038)+10% FCS (fetal calf serum). […] Compounds (10 mM stock in DMSO) are added at logarithmic dose series using the HP Digital Dispenser D300 (Tecan), including DMSO controls and normalizing for added DMSO. For the TO time point measurement, untreated cells are analyzed at the time of compound addition. Plates are incubated for 120 h, and cell viability is measured using CellTiter-Glo luminescent cell viability reagent (Promega product code G7570). Viability (stated as percent of control) is defined as relative luminescence units RLU of each well divided by the RLU of cells in DMSO controls.

The target of another series is T2, CYP3A4 (Homo sapiens, UniProt P08684).
T2 construct: from tissue; host or cells: human liver microsomes
T2 sequence (P08684 whole entry): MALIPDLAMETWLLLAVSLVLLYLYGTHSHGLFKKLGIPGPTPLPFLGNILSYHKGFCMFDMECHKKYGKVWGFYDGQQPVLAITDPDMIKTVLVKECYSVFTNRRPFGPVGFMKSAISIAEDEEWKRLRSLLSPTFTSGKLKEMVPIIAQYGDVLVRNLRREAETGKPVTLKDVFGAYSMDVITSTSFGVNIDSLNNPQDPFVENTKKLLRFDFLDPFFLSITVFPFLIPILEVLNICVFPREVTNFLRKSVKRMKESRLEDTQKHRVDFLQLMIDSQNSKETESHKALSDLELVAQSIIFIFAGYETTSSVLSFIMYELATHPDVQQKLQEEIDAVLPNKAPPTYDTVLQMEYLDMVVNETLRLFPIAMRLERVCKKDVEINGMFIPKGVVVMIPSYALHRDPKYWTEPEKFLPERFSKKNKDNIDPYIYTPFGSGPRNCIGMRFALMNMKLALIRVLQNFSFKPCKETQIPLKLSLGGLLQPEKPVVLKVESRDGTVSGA
The experiment in a line: Mechanism based inhibition of CYP3A4 assay (MBI 3A4). It counts as in vitro ADME. The following applies: human liver microsomes, 25 uM, hydroxy-midazolam formation 30 min vs 0 min preincubation. As to the method:
The time dependent inhibition towards CYP3A4 is assayed in human liver microsomes (0.02 mg/mL) with midazolam (15 μM) as a substrate. The test compounds and water control (wells w/o test compound) are preincubated in presence of NADPH (1 mM) with human liver microsomes (0.2 mg/mL) at a concentration of 25 uM for 0 min and 30 min. After preincubation, the incubate is diluted 1:10 and the substrate midazolam is added for the main incubation (15 min). The main incubation is quenched with acetonitrile and the formation of hydroxy-midazolam is quantified via LC/MS-MS. The formation of hydroxy-midazolam from the 30 min preincubation relative to the formation from the 0 min preincubation is used as a readout. Values of less than 100% mean that the substrate midazolam is metabolized to a lower extent upon 30 min preincubation compared to 0 min preincubation. In general low effects upon 30 min preincubation are desired (corresponding to values close to 100%/not different to the values determined with water control).
(In general: Microsomes from liver hold many membrane-bound enzymes, among them those of drug oxidation.)

pIC50: −log10 of the molar value.

T1 sequence (P01116 1-169 isoform P01116-2 C118S): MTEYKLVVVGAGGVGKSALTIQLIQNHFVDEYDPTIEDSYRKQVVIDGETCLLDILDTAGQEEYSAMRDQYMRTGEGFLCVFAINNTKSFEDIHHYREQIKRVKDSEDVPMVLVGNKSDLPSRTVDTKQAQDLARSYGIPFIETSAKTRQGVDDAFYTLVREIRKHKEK

By pIC50 is commonly meant −log10 of the IC50, conventionally taken in molar units. Lower therefore signals a large IC50. Take `C[C@H](Oc1cc(Oc2cncnc2)nc(-c2noc3c2CCC[C@@]32CCCc3sc(N)c(C#N)c32)n1)[C@@H]1CCCN1C` [II-1]: the negative-log IC50 (pIC50) at KRAS (WT)::SOS1 is 8.52; with GP2D cells it was 8.00.

On to `C[C@H](Oc1cc(Nc2cnccn2)nc(-c2noc3c2CCC[C@@]32CCCc3sc(N)c(C#N)c32)n1)[C@@H]1CCCN1C` [II-14], for which the negative-log IC50 (pIC50) at KRAS (WT)::SOS1 was 8.00. Further, at CYP3A4, the “MBI 3A4 [%]” value worked out at 67%.

Regarding `C[C@H](Oc1cc(Nc2cccnn2)nc(-c2noc3c2CCC[C@@]32CCCc3sc(N)c(C#N)c32)n1)[C@@H]1CCCN1C` [II-18], on CYP3A4, the “MBI 3A4 [%]” value is 64%.

Take `C[C@H](Oc1cc(Oc2cncnc2)nc(-c2onc3c2CCC[C@@]32CCCc3sc(N)c(C#N)c32)n1)[C@@H]1CCCN1C` [Example I-3]: the negative logarithm of the IC50 (pIC50) at KRAS (WT)::SOS1 was 8.70; with GP2D cells it was 7.92.

With `C[C@H](Oc1cc(OCC2(N(C)C)CC2)nc(-c2noc3c2CCC[C@@]32CCCc3sc(N)c(C#N)c32)n1)[C@@H]1CCCN1C` [II-21], the pIC50 in the series on GP2D cells was 8.10. For the same compound, the “MBI 3A4 [%]” value at CYP3A4 is 76%.

`C[C@H](Oc1cc(Nc2ncccn2)nc(-c2noc3c2CCC[C@@]32CCCc3sc(N)c(C#N)c32)n1)[C@@H]1CCCN1C` [II-17]: the negative-log IC50 (pIC50) was 8.10 at KRAS (WT)::SOS1 and 6.44 in the series with GP2D cells. On CYP3A4, the “MBI 3A4 [%]” value is 75%.

Turning to `C[C@H](Oc1cc(Nc2ccccn2)nc(-c2noc3c2CCC[C@@]32CCCc3sc(N)c(C#N)c32)n1)[C@@H]1CCCN1C` [II-16], the “MBI 3A4 [%]” value on CYP3A4 was 48%.

As to `C[C@H](Oc1cc(Nc2ccncn2)nc(-c2noc3c2CCC[C@@]32CCCc3sc(N)c(C#N)c32)n1)[C@@H]1CCCN1C` [II-15], on CYP3A4, the “MBI 3A4 [%]” value stood at 64%.

With `C[C@H](Oc1cc(OCC2(N(C)C)COC2)nc(-c2onc3c2CCC[C@@]32CCCc3sc(N)c(C#N)c32)n1)[C@@H]1CCCN1C` [Example I-8], the negative-log IC50 (pIC50) in the series with GP2D cells is 7.96. Moreover, the “MBI 3A4 [%]” value on CYP3A4 was 77%.

Take `C[C@H](Oc1cc(OCC2(N(C)C)COC2)nc(-c2noc3c2CCC[C@@]32CCCc3sc(N)c(C#N)c32)n1)[C@@H]1CCCN1C` [II-22]: the negative logarithm of the IC50 (pIC50) was 8.70 at KRAS (WT)::SOS1 and 8.30 in the series on GP2D cells. In addition, the “MBI 3A4 [%]” value at CYP3A4 came to 78%.

For `COc1c(OCC2(N(C)C)COC2)nc(-c2noc3c2CCC[C@@]32CCCc3sc(N)c(C#N)c32)nc1O[C@@H](C)[C@@H]1CCCN1C` [II-25], the pIC50 on KRAS (WT)::SOS1 was 8.40; in the series on GP2D cells, 7.77. Further, at CYP3A4, the “MBI 3A4 [%]” value was 69%.

Regarding `C[C@H]1CN(C)CCCN1c1cc(O[C@@H]2CNC2(C)C)nc(-c2noc3c2CCC[C@@]32CCCc3sc(N)c(C#N)c32)n1` [II-28], the pIC50 on KRAS (WT)::SOS1 is 8.00; with GP2D cells, 7.70. Besides, the “MBI 3A4 [%]” value on CYP3A4 came to 65%.

For `C[C@H](Oc1cc(Oc2nccs2)nc(-c2noc3c2CCC[C@@]32CCCc3sc(N)c(C#N)c32)n1)[C@@H]1CCCN1C` [II-2], the “MBI 3A4 [%]” value at CYP3A4 was determined as 40%.

Regarding `C[C@H](Oc1cc(O[C@H]2CCOC2)nc(-c2noc3c2CCC[C@@]32CCCc3sc(N)c(C#N)c32)n1)[C@@H]1CCCN1C` [II-4], the negative logarithm of the IC50 (pIC50) in the series on GP2D cells is 6.75. For the same compound, the “MBI 3A4 [%]” value at CYP3A4 is listed as 58%.

For the compound `C[C@H](Oc1cc(O[C@@H]2CNC[C@@H]2F)nc(-c2noc3c2CCC[C@@]32CCCc3sc(N)c(C#N)c32)n1)[C@@H]1CCCN1C` [II-29], the negative logarithm of the IC50 (pIC50) on KRAS (WT)::SOS1 is 8.40; in the series on GP2D cells, 8.05.

`COCCOc1cc(O[C@@H](C)[C@@H]2CCCN2C)nc(-c2noc3c2CCC[C@@]32CCCc3sc(N)c(C#N)c32)n1` [II-5]: the “MBI 3A4 [%]” value on CYP3A4 is on record as 69%.

On to `C[C@H](Oc1cc(Nc2ncco2)nc(-c2noc3c2CCC[C@@]32CCCc3sc(N)c(C#N)c32)n1)[C@@H]1CCCN1C` [II-13], for which the pIC50 on KRAS (WT)::SOS1 is 8.15. For the same compound, the “MBI 3A4 [%]” value on CYP3A4 was 52%.

For `COC[C@H](C)Nc1cc(O[C@@H](C)[C@@H]2CCCN2C)nc(-c2onc3c2CCC[C@@]32CCCc3sc(N)c(C#N)c32)n1` [Example I-5], the “MBI 3A4 [%]” value at CYP3A4 is reported as 61%.

For the compound `CO[C@@H]1C[C@@H]([C@H](C)Oc2cc(O[C@@H]3CNC3(C)C)nc(-c3noc4c3CCC[C@@]43CCCc4sc(N)c(C#N)c43)n2)N(C)C1` [II-30], the pIC50 at KRAS (WT)::SOS1 was 8.70.

`C[C@H](Oc1cc(O[C@@H]2CNC2(C)C)nc(-c2noc3c2CCC[C@@]32CCCc3sc(N)c(C#N)c32)n1)[C@@H]1C[C@@H](F)CN1C` [II-31]: the negative logarithm of the IC50 (pIC50) at KRAS (WT)::SOS1 was 8.70; in the series on GP2D cells, 9.00.

The compound `C[C@H](Oc1cc(O[C@@H]2CNC2(C)C)nc(-c2noc3c2CCC[C@@]32CCCc3sc(N)c(C#N)c32)n1)[C@@H]1CCCN1C` [II-9] had a pIC50 on KRAS (WT)::SOS1 of 8.70. Moreover, the “MBI 3A4 [%]” value on CYP3A4 amounted to 72%.

In turn, `C[C@H](Oc1cc(Oc2cccnc2)nc(-c2onc3c2CCC[C@@]32CCCc3sc(N)c(C#N)c32)n1)[C@@H]1CCCN1C` [Example I-2] had a negative logarithm of the IC50 (pIC50) on KRAS (WT)::SOS1 of 8.40.

As to `C[C@H](Oc1cc(OCCO)nc(-c2noc3c2CCC[C@@]32CCCc3sc(N)c(C#N)c32)n1)[C@@H]1CCCN1C` [II-6], at CYP3A4, the “MBI 3A4 [%]” value is 61%.

In turn, `C[C@H](Oc1cc(Oc2nccs2)nc(-c2onc3c2CCC[C@@]32CCCc3sc(N)c(C#N)c32)n1)[C@@H]1CCCN1C` [Example I-1] had a negative-log IC50 (pIC50) at KRAS (WT)::SOS1 of 8.40.
